These are literature values, as cited in patent US20200337300A1, “GREASE-LIKE GEL FOR REPELLING INSECTS AND PREVENTING UNDESIRABLE BEHAVIOR IN HOOFED ANIMALS” (Pacific Tech Industries, Inc., priority 2010, published 2020).

The conditions of data set [1]: pungency of the pure capsaicinoid.
For data set [2] the following is noted: for solubility in organic solvents: most organic solvents.

Turning to `COc1cc(CNC(=O)CCCC/C=C/C(C)C)ccc1O` [Capsaicin, 8-methyl-N-vanillyl-6-nonenamide], the Scoville heat units in data set [1] is 16,000,000 Scoville heat units.
Turning to `C=CCS[S+]([O-])CC=C` (stereo not shown) [allicin], in data set [2], the “solubility in organic solvents” value is given as “soluble in most organic solvents” and the solubility in water entry was “slightly soluble in water”.
As for `COc1cc(CNC(=O)CCCCCCCC(C)C)ccc1O` [Homodihydrocapsaicin], in data set [1], the Scoville heat units is reported as 8,600,000 Scoville heat units.
As for `COc1cc(CNC(=O)CCCCC/C=C/C(C)C)ccc1O` [Homocapsaicin], the Scoville heat units in data set [1] is reported as 8,600,000 Scoville heat units.
For the molecule `C=CCN=C=S` [Allyl isothiocyanate], in data set [2], the “solubility in organic solvents” value is reported as “soluble in most organic solvents” and the solubility in water result is reported as “slightly soluble in water”.
